# The source made the active and inactive calls. How the calls were made is not given here.
# System: CCRIS mutagenicity, Ames/micronucleus/aberration tests
# Assay: CCRIS mutagenicity studies
# [1] = Test System: AMES SALMONELLA TYPHIMURIUM, Strain/Indicator: TA98, Metabolic Activation: NONE, Method: PREINCUBATION
# [2] = Test System: AMES SALMONELLA TYPHIMURIUM, Strain/Indicator: TA98, Metabolic Activation: RAT, LIVER, S-9, PCB, Method: PREINCUBATION
# [3] = Test System: AMES SALMONELLA TYPHIMURIUM, Strain/Indicator: TA100, Metabolic Activation: NONE, Method: PREINCUBATION
# [4] = Test System: AMES SALMONELLA TYPHIMURIUM, Strain/Indicator: TA100, Metabolic Activation: RAT, LIVER, S-9, PCB, Method: PREINCUBATION
smiles,measurement,setting,value
COC(=O)c1ccccc1O,mutagenic call,"Test System: AMES SALMONELLA TYPHIMURIUM, Strain/Indicator: TA98, Metabolic Activation: GUINEA PIG, LIVER, S-9, PCB, Method: PREINCUBATION",inactive; negative
same,mutagenic call,"Test System: AMES SALMONELLA TYPHIMURIUM, Strain/Indicator: TA98, Metabolic Activation: HAMSTER, LIVER, S-9, AROCLOR 1254 (30%), Method: PREINCUBATION",inactive; negative
same,mutagenic call,"Test System: AMES SALMONELLA TYPHIMURIUM, Strain/Indicator: TA98, Metabolic Activation: HAMSTER, LIVER, S-9, AROCLOR 1254 (50%), Method: PREINCUBATION",inactive; negative
same,mutagenic call,"Test System: AMES SALMONELLA TYPHIMURIUM, Strain/Indicator: TA98, Metabolic Activation: HAMSTER, LIVER, S-9, PCB, Method: PREINCUBATION",active; positive
same,mutagenic call,"Test System: AMES SALMONELLA TYPHIMURIUM, Strain/Indicator: TA98, Metabolic Activation: MOUSE, LIVER, S-9, PCB, Method: PREINCUBATION",inactive; negative
same,mutagenic call,[1],inactive; negative
same,mutagenic call,"Test System: AMES SALMONELLA TYPHIMURIUM, Strain/Indicator: TA98, Metabolic Activation: RAT, LIVER, S-9, AROCLOR 1254 (30%), Method: PREINCUBATION",inactive; negative
same,mutagenic call,"Test System: AMES SALMONELLA TYPHIMURIUM, Strain/Indicator: TA98, Metabolic Activation: RAT, LIVER, S-9, AROCLOR 1254 (50%), Method: PREINCUBATION",inactive; negative
same,mutagenic call,[2],inactive; negative
same,mutagenic call,"Test System: AMES SALMONELLA TYPHIMURIUM, Strain/Indicator: TA100, Metabolic Activation: GUINEA PIG, LIVER, S-9, PCB, Method: PREINCUBATION",inactive; negative
same,mutagenic call,"Test System: AMES SALMONELLA TYPHIMURIUM, Strain/Indicator: TA100, Metabolic Activation: HAMSTER, LIVER, S-9, AROCLOR 1254 (30%), Method: PREINCUBATION",inactive; negative
same,mutagenic call,"Test System: AMES SALMONELLA TYPHIMURIUM, Strain/Indicator: TA100, Metabolic Activation: HAMSTER, LIVER, S-9, AROCLOR 1254 (50%), Method: PREINCUBATION",inactive; negative
same,mutagenic call,"Test System: AMES SALMONELLA TYPHIMURIUM, Strain/Indicator: TA100, Metabolic Activation: HAMSTER, LIVER, S-9, PCB, Method: PREINCUBATION",active; positive
same,mutagenic call,"Test System: AMES SALMONELLA TYPHIMURIUM, Strain/Indicator: TA100, Metabolic Activation: MOUSE, LIVER, S-9, PCB, Method: PREINCUBATION",inactive; negative
same,mutagenic call,[3],inactive; negative
same,mutagenic call,"Test System: AMES SALMONELLA TYPHIMURIUM, Strain/Indicator: TA100, Metabolic Activation: RAT, LIVER, S-9, AROCLOR 1254 (30%), Method: PREINCUBATION",inactive; negative
same,mutagenic call,"Test System: AMES SALMONELLA TYPHIMURIUM, Strain/Indicator: TA100, Metabolic Activation: RAT, LIVER, S-9, AROCLOR 1254 (50%), Method: PREINCUBATION",inactive; negative
same,mutagenic call,[4],inactive; negative
same,mutagenic call,"Test System: AMES SALMONELLA TYPHIMURIUM, Strain/Indicator: TA1535, Metabolic Activation: HAMSTER, LIVER, S-9, AROCLOR 1254 (30%), Method: PREINCUBATION",inactive; negative
same,mutagenic call,"Test System: AMES SALMONELLA TYPHIMURIUM, Strain/Indicator: TA1535, Metabolic Activation: HAMSTER, LIVER, S-9, AROCLOR 1254 (50%), Method: PREINCUBATION",inactive; negative
same,mutagenic call,"Test System: AMES SALMONELLA TYPHIMURIUM, Strain/Indicator: TA1535, Metabolic Activation: NONE, Method: PREINCUBATION",inactive; negative
same,mutagenic call,"Test System: AMES SALMONELLA TYPHIMURIUM, Strain/Indicator: TA1535, Metabolic Activation: RAT, LIVER, S-9, AROCLOR 1254 (30%), Method: PREINCUBATION",inactive; negative
same,mutagenic call,"Test System: AMES SALMONELLA TYPHIMURIUM, Strain/Indicator: TA1535, Metabolic Activation: RAT, LIVER, S-9, AROCLOR 1254 (50%), Method: PREINCUBATION",inactive; negative
same,mutagenic call,"Test System: AMES SALMONELLA TYPHIMURIUM, Strain/Indicator: TA1537, Metabolic Activation: HAMSTER, LIVER, S-9, AROCLOR 1254 (30%), Method: PREINCUBATION",inactive; negative
same,mutagenic call,"Test System: AMES SALMONELLA TYPHIMURIUM, Strain/Indicator: TA1537, Metabolic Activation: HAMSTER, LIVER, S-9, AROCLOR 1254 (50%), Method: PREINCUBATION",inactive; negative
same,mutagenic call,"Test System: AMES SALMONELLA TYPHIMURIUM, Strain/Indicator: TA1537, Metabolic Activation: NONE, Method: PREINCUBATION",inactive; negative
same,mutagenic call,"Test System: AMES SALMONELLA TYPHIMURIUM, Strain/Indicator: TA1537, Metabolic Activation: RAT, LIVER, S-9, AROCLOR 1254 (30%), Method: PREINCUBATION",inactive; negative
same,mutagenic call,"Test System: AMES SALMONELLA TYPHIMURIUM, Strain/Indicator: TA1537, Metabolic Activation: RAT, LIVER, S-9, AROCLOR 1254 (50%), Method: PREINCUBATION",inactive; negative
CCCCCCCCCCCCCC(=O)ON(C(C)=O)c1ccc2c(c1)Cc1ccccc1-2,mutagenic call,"Test System: UDS HUMAN FIBROBLASTS, Strain/Indicator: THY INCORP (NON-S-PHASE), Metabolic Activation: NONE, Method: AUTORADIOGRAPHY",active; positive
CC(C)C[C@H](NC(=O)COc1cc(Cl)c(Cl)cc1Cl)C(=O)O,mutagenic call,"Test System: AMES SALMONELLA TYPHIMURIUM, Strain/Indicator: TA97, Metabolic Activation: NONE, Method: STANDARD PLATE",inactive; negative
same,mutagenic call,"Test System: AMES SALMONELLA TYPHIMURIUM, Strain/Indicator: TA97, Metabolic Activation: RAT, LIVER, S-9, AROCLOR 1254, Method: STANDARD PLATE",inactive; negative
same,mutagenic call,"Test System: AMES SALMONELLA TYPHIMURIUM, Strain/Indicator: TA98, Metabolic Activation: NONE, Method: STANDARD PLATE",inactive; negative
same,mutagenic call,"Test System: AMES SALMONELLA TYPHIMURIUM, Strain/Indicator: TA98, Metabolic Activation: RAT, LIVER, S-9, AROCLOR 1254, Method: STANDARD PLATE",inactive; negative
same,mutagenic call,"Test System: AMES SALMONELLA TYPHIMURIUM, Strain/Indicator: TA100, Metabolic Activation: NONE, Method: STANDARD PLATE",inactive; negative
same,mutagenic call,"Test System: AMES SALMONELLA TYPHIMURIUM, Strain/Indicator: TA100, Metabolic Activation: RAT, LIVER, S-9, AROCLOR 1254, Method: STANDARD PLATE",inactive; negative
same,mutagenic call,"Test System: AMES SALMONELLA TYPHIMURIUM, Strain/Indicator: TA1535, Metabolic Activation: NONE, Method: STANDARD PLATE",inactive; negative
same,mutagenic call,"Test System: AMES SALMONELLA TYPHIMURIUM, Strain/Indicator: TA1535, Metabolic Activation: RAT, LIVER, S-9, AROCLOR 1254, Method: STANDARD PLATE",inactive; negative
same,mutagenic call,"Test System: AMES SALMONELLA TYPHIMURIUM, Strain/Indicator: TA1538, Metabolic Activation: NONE, Method: STANDARD PLATE",inactive; negative
same,mutagenic call,"Test System: AMES SALMONELLA TYPHIMURIUM, Strain/Indicator: TA1538, Metabolic Activation: RAT, LIVER, S-9, AROCLOR 1254, Method: STANDARD PLATE",inactive; negative
C[N+](C)(C)CC1CO1 (stereo not given),mutagenic call,"Test System: UDS RAT HEPATOCYTES, Strain/Indicator: THY INCORP, Metabolic Activation: NONE",active; positive
Cc1ccc(NN=NCc2ccccc2)cc1,mutagenic call,[1],active; positive
same,mutagenic call,[2],active; positive
same,mutagenic call,[3],active; positive
same,mutagenic call,[4],active; positive
COc1cccc2c1OC1(C)OOC21C (stereo not given),mutagenic call,[3],active; positive
